Holding throughout (format): biochemical
The target of experiment [1] is SIK2 (Homo sapiens, UniProt Q9H0K1). The experiment can be described thus: Enzymatic activity assay SIK2, RapidFire mass spectrometry (phosphorylation of CHK-peptide). Particulars: RapidFire MS, inhibition of SIK2; read-out: SIK2 RF IC50. In outline:
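Read-out is the summed phospho-species fraction of CHK-peptide by RapidFire mass spectrometry, normalized between DMSO and 1 μM YKL-05-099. The reaction used 0.5 nM SIK2, 100 μM ATP and 10 μM peptide solutions in HEPES pH 7.0/10 mM magnesium acetate for 45 min at ambient temperature.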

The target of experiment [2] is SIK3 (Homo sapiens, UniProt Q9Y2K2). In words: Enzymatic activity assay SIK3, RapidFire mass spectrometry (phosphorylation of CHK-peptide). The following applies: RapidFire MS, inhibition of SIK3; read-out: SIK3 RF IC50. In short, it runs like this:
(§1)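 Human SIK1/2/3, 5/0.5/1.5 nM; 12.5 mM HEPES pH 7.0, 10 mM Mg acetate, 0.005% BSA. 30 min cpd pre-inc, + CHK-peptide (10 μM soln) + ATP (100 μM soln), 45 min RT. Formic acid stop; RF-MS phospho ratio; IC50.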

Experiment [3] has as its target SIK1 (Homo sapiens, UniProt P57059). The experiment can be described thus: Enzymatic activity assay SIK1, RapidFire mass spectrometry (phosphorylation of CHK-peptide). Particulars: RapidFire MS, inhibition of SIK1; read-out: SIK1 RF IC50. In short, it runs like this:
as §1

pIC50: −log10 of the molar value.

Chain of SIK1 (P57059 whole entry): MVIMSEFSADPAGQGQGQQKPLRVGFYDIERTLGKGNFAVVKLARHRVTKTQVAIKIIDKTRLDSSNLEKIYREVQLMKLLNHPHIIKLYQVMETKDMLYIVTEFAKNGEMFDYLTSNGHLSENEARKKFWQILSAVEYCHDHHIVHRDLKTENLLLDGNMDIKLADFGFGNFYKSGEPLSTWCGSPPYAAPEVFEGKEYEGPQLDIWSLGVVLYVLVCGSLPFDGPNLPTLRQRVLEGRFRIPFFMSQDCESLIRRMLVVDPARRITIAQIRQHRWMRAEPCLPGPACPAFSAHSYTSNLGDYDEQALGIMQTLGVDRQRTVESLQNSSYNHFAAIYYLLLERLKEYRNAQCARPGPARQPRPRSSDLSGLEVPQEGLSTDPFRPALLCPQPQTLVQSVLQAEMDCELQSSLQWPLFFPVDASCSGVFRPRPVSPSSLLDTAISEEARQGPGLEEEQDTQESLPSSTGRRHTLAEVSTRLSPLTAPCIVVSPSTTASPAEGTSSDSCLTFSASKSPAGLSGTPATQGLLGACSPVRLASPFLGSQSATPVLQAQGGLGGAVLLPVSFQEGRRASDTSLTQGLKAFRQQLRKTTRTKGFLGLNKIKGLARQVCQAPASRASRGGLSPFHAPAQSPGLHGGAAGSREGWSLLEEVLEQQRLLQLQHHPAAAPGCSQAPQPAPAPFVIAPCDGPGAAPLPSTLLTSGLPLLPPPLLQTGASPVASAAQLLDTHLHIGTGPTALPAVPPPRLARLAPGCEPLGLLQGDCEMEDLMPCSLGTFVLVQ
Chain of SIK3 (Q9Y2K2 whole entry): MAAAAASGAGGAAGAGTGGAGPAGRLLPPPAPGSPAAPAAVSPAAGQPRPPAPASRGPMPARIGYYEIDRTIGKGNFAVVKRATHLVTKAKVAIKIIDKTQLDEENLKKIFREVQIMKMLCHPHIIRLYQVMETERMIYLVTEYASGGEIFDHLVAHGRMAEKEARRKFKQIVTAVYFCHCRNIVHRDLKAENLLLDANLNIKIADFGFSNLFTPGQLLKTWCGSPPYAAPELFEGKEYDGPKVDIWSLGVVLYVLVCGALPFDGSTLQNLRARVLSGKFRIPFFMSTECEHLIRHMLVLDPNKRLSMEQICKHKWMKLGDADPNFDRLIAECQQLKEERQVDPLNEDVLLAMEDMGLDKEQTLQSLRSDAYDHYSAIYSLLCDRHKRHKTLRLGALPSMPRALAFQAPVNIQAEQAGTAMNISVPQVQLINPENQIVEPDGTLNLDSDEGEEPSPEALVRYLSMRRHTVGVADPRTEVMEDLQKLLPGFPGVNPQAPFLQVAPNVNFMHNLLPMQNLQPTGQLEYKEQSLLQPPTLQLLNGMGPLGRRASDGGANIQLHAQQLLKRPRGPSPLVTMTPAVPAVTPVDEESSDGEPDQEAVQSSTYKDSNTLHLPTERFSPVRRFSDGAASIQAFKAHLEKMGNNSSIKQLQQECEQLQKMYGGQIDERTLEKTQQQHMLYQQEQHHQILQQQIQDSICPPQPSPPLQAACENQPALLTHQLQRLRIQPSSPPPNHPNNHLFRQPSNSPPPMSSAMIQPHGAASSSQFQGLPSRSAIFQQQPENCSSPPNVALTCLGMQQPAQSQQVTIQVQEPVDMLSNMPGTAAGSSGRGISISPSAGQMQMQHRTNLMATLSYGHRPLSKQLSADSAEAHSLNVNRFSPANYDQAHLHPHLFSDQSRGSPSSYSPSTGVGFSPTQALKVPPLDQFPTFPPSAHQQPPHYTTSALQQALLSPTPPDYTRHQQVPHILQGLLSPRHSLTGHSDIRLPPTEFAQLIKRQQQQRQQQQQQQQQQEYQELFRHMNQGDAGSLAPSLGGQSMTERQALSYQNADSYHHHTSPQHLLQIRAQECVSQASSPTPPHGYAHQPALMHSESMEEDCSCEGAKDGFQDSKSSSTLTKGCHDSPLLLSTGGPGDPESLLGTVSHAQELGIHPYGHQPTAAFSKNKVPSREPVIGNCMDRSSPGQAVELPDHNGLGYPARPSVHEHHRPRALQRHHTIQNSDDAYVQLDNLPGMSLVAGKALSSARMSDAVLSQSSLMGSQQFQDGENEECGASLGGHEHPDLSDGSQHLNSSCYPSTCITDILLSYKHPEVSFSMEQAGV
Chain of SIK2 (Q9H0K1 whole entry): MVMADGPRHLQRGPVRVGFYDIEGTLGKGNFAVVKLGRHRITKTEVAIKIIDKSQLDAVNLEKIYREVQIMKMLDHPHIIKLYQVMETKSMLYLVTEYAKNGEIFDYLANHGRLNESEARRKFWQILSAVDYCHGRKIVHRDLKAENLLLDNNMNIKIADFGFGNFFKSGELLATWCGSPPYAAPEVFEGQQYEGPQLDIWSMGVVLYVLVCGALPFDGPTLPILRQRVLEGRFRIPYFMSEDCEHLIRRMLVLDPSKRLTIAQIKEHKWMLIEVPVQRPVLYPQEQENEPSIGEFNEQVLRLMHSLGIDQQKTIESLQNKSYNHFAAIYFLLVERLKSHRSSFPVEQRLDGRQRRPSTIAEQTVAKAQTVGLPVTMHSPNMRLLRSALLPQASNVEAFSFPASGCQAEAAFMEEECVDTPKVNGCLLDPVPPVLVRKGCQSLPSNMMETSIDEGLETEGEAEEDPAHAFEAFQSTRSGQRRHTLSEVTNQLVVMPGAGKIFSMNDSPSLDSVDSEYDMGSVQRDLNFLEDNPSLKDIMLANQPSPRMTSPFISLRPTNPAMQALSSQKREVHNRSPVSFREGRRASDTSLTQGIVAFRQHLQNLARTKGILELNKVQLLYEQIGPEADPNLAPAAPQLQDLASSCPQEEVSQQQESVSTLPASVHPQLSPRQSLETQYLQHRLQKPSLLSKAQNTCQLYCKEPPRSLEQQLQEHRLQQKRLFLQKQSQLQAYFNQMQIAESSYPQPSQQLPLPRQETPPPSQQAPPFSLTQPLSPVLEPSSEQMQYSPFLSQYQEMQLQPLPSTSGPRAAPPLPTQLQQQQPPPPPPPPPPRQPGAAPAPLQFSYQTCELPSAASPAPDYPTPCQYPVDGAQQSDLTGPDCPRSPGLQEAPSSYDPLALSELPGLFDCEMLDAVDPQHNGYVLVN

Broadly, the pIC50 is −log10 of the IC50, conventionally taken in molar units. Take `Cc1ccc(Nc2ccc3ncn(-c4ccc([C@H](C)O)c(-n5nc(C#N)cc5C)n4)c3c2)nn1` [Example 280, 1-[3-[(1S)-1-hydroxyethyl]-6-[6-[(6-methylpyridazin-3-yl)amino]benzimidazol-1-yl]-2-pyridyl]-5-methyl-pyrazole-3-carbonitrile]: the pIC50 was 7.58 in experiment [1], 6.83 in experiment [2] and 7.41 in experiment [3].

Regarding `Cc1ccc(Nc2ccc3c(c2)ncn3-c2ccc(C(C)O)c(-c3cn(CC(C)(F)F)nc3C)n2)nn1` (stereo not drawn) [Example 281, 1-[2-[1-(2,2-difluoropropyl)-3-methyl-pyrazol-4-yl]-6-[5-[(6-methylpyridazin-3-yl)amino]benzimidazol-1-yl]-3-pyridyl]ethanol], the pIC50 is 9.22 in experiment [1], 8.92 in experiment [2] and 7.34 in experiment [3].

For `Cc1ccc(Nc2cc3ncn(-c4ccc(C(C)O)c(-n5nc(C#N)cc5C)n4)c3cc2OC2COC2)nn1` (stereo not drawn) [Example 282, 1-[3-(1-hydroxyethyl)-6-[5-[(6-methylpyridazin-3-yl)amino]-6-(oxetan-3-yloxy)benzimidazol-1-yl]-2-pyridyl]-5-methyl-pyrazole-3-carbonitrile], the figures for the pIC50 in experiment [1], in experiment [2] and in experiment [3] were 9.40, 9.10 and 8.15, respectively.

Regarding `CCc1cc(-c2nc(-n3cnc4cc(Nc5ccc(C)nn5)ccc43)ccc2C(C)O)c(C)cn1` (stereo not drawn) [Example 283, 1-[2-(2-ethyl-5-methyl-4-pyridyl)-6-[5-[(6-methylpyridazin-3-yl)amino]benzimidazol-1-yl]-3-pyridyl]ethanol], the pIC50 in experiment [1] was 7.67; in experiment [2], 8.10; in experiment [3] it was 5.98.

Consider `Cc1ccc(Nc2ccc3c(c2)ncn3-c2ccc(C(C)O)c(-c3cnn(CC(C)(F)F)c3C)n2)nn1` (stereo not drawn) [Example 284, 1-[2-[1-(2,2-difluoropropyl)-5-methyl-pyrazol-4-yl]-6-[5-[(6-methylpyridazin-3-yl)amino]benzimidazol-1-yl]-3-pyridyl]ethanol], for which the pIC50 is 8.68 in experiment [1], 8.72 in experiment [2] and 6.78 in experiment [3].

As for `COc1cc(-c2nc(-n3cnc4cc(Nc5ccc(C)nn5)ccc43)ccc2C(C)O)c(C)cn1` (stereo not drawn) [Example 285, 1-[2-(2-methoxy-5-methyl-4-pyridyl)-6-[5-[(6-methylpyridazin-3-yl)amino]benzimidazol-1-yl]-3-pyridyl]ethanol], the pIC50 is 7.94 in experiment [1], 8.19 in experiment [2] and 6.30 in experiment [3].

In the case of `Cc1ccc(Nc2ccc3c(c2)ncn3-c2ccc([C@H](C)O)c(-n3nc(C(F)F)cc3C(F)F)n2)nn1` [Example 287, (1S)-1-[2-[3,5-bis(difluoromethyl)pyrazol-1-yl]-6-[5-[(6-methylpyridazin-3-yl)amino]benzimidazol-1-yl]-3-pyridyl]ethanol], the pIC50 was 9.10 in experiment [1], 9.40 in experiment [2] and 6.96 in experiment [3].

For the molecule `Cc1ccc(Nc2ccc3c(c2)ncn3-c2ccc([C@@H](C)O)c(-n3nc(C(F)F)cc3C(F)F)n2)nn1` [Example 288, (1R)-1-[2-[3,5-bis(difluoromethyl)pyrazol-1-yl]-6-[5-[(6-methylpyridazin-3-yl)amino]benzimidazol-1-yl]-3-pyridyl]ethanol], the pIC50 in experiment [1] was 7.88; in experiment [2] it was 8.24; in experiment [3], 5.80.

As to `Cc1ccc(Nc2ccc3c(c2)ncn3-c2ccc(C(C)O)c(-c3cc(C4CC4)ncc3C)n2)nn1` (stereo not drawn) [Example 289, 1-[2-(2-cyclopropyl-5-methyl-4-pyridyl)-6-[5-[(6-methylpyridazin-3-yl)amino]benzimidazol-1-yl]-3-pyridyl]ethanol], the pIC50 in experiment [1] is 7.91; in experiment [2], 8.24; in experiment [3], 6.23.

These data come from patent US20240383875A1, “Benzimidazole Pyridine Derivatives” (Hoffmann-La Roche Inc., priority 2022, published 2024).
